US8278290B2, “Tubulin polymerisation inhibitors” (Biononics Limited, priority 2005, dated 2012)

What was measured:
MDA-MB-231 tumour = MDA-MB-231 tumour growth in mice; type: in vivo; details: 35 mg/kg/d (35 mg/kg/d for 3 days then 17.5 mg/kg/d for 3 days then none); 5 mice per group; FIG. 1
Procedure: The effect of 35 mg/kg/d CA4-P, compound entry 8, compound entry 9, compound entry 10 and compound entry 23 (administered at 35 mg/kg/d for 3 days then 17.5 mg/kg/d for 3 days then none) on MDA-MB-231 tumour growth is summarised in FIG. 1.
The effect of CA4-P and test compounds and saline on MDA-MB-231 tumour growth. Each group consisted of 5 mice. The data represent the mean tumour volume; bars SEM.

MCF-7, cancer cell line = experiment: MCF-7 growth inhibition (SRB or Sysmex cell counting); type: cell-based; details: SRB or CC assay
Tubulin = experiment: Inhibition of tubulin polymerisation; type: biochemical; details: tubulin concentration 10 μM; extent of assembly after 20 min incubation at 30° C.; read-out: Inhib. Tubulin polymerisation IC50
[1] = tested on: Human umbilical vein endothelial cells; experiment: Proliferation Assay - activated endothelium (MTT); type: cell-based; details: HUVEC, range within which the IC50 value falls, 48 hrs culture, read-out: Inhib activated HUVECs IC50
Procedure: Proliferation Assay—activated endothelium: Human umbilical vein endothelial cells (CC-2519, Clonetics) were plated at 2500 cells/well in EGM2 (CC-3162, Clonetics) in a 96 well plate in triplicate. Cells were cultured overnight at 37° C. 5% CO2. Medium was subsequently replaced with fresh medium including the compound or negative control. Cells were cultured for a period of 48 hrs. An MTT assay was performed to measure changes in cell numbers. Briefly, 20 μl of MTT reagent was added to cells containing 100 μl of EGM2 and incubated at 37° C. for 2 hours. Absorbance was measured at 492 nm.

MDA-MB-231 = MDA-MB-231 growth inhibition (footnote b); type: cell-based; details: Homo sapiens; entries 59-60: cell line MDA-MB-231; range within which the IC50 value falls; read-out: cancer cell line IC50 (MDA-MB-231)
[2] = Homo sapiens, MCF7, concentration required to inhibit net cell growth by 50%
[3] = concentration required to inhibit net cell growth by 50%

Row | IC50 (MDA-MB-231) [nM] | SMILES | effect on MDA-MB-231 tumour growth (MDA-MB-231 tumour) | IC50 (MCF-7, cancer cell line; [2]) [nM] | IC50 (Tubulin) [nM] | IC50 (MCF-7, cancer cell line; [3]) [nM] | IC50 [1] [nM]
1 |  | COc1ccc(/C=C\c2cc(OC)c(OC)c(OC)c2)cc1OP(=O)([O-])[O-].[Na+].[Na+] [CA4-P, combretastatin A4 disodium phosphate, reference compound] | effectively inhibited |  |  |  | 
2 |  | COc1ccc(-c2oc3c(O)c(OC)ccc3c2C(=O)c2cc(OC)c(OC)c(OC)c2)cc1 [Entry 4, reference compound] |  | 1 to 2 | 1500 ± 400 |  | 
3 |  | COc1ccc(-c2oc3c(O)c(OC)ccc3c2C(=O)c2cc(OC)c(OC)c(OC)c2)cc1O [Entry 5, reference compound] |  | 3.9 | < 4000 | 4.1 | 
4 |  | COc1ccc2c(C(=O)c3cc(OC)c(OC)c(OC)c3)coc2c1 [Entry 6, reference compound] |  | 60 | 1600 ± 200 | 50 | 
5 |  | COc1ccc2c(C(=O)c3cc(OC)c(OC)c(OC)c3)c(-c3ccc(OC)nc3)oc2c1 [Entry 11, 2-(6-Methoxy-pyridin-3-yl)-3-(3,4,5-trimethoxybenzoyl)-6-methoxy-benzofuran] |  | 70 | < 4000 | 72 | 10 to 100
6 |  | COc1ccc2c(C(=O)c3cc(OC)c(OC)c(OC)c3)c(-c3cnn(C)c3)oc2c1 [Entry 12, 6-Methoxy-2-(1-methyl-1H-pyrazol-4-yl)-3-(3,4,5-trimethoxybenzoyl)benzo[b]furan] |  | 3.9 | 1200 ± 40 | 4 | 1 to 10
7 |  | COc1cc(C(=O)c2c(-c3cnn(C)c3)oc3c(O)c(OC)ccc23)cc(OC)c1OC [Entry 14, 2-(4-N-Methylpyrazolyl)-3-(3,4,5-trimethoxybenzoyl)-6-methoxy-7-hydroxy-benzofuran] |  |  | 1300 ± 70 |  | 0.1 to 1
8 |  | COc1cc(C(=O)c2c(-c3cnn(C)c3)oc3c(N)c(OC)ccc23)cc(OC)c1OC [Entry 21, 7-Amino-6-methoxy-2-(1-methyl-1H-pyrazol-4-yl)-3-(3,4,5-trimethoxybenzoyl)benzo[b]furan] |  | < 1 | 1500 ± 100 | 1.2 | 1 to 10
9 |  | COc1cc(C(=O)c2c(-c3cnn(C)c3)oc3c(OP(=O)([O-])[O-])c(OC)ccc23)cc(OC)c1OC.[Na+].[Na+] [Entry 23, 2-(4-N-methylpyrazolyl)-3-(3,4,5-trimethoxybenzoyl)-6-methoxy-7-O-disodiumphosphate-benzofuran] | effectively inhibited |  |  |  | 
10 |  | COc1cc(C(=O)c2c(-c3ccco3)oc3c(O)c(OC)ccc23)cc(OC)c1OC [Entry 36, 2-(2-furanyl)-7-hydroxy-6-methoxy-3-(3,4,5-trimethoxybenzoyl)benzo[b]furan] |  |  | 8700 ± 800 |  | 1 to 10
11 |  | COc1cc(C(=O)c2c(-c3nccs3)oc3c(O)c(OC)ccc23)cc(OC)c1OC [Entry 44, 7-Hydroxy-2-(2-thiazolyl)-3-(3,4,5-trimethoxybenzoyl)-6-methoxy-benzo[b]furan] |  | 0.37 | 2200 ± 400 | 0.32 | 0.1 to 1
12 |  | COc1ccc2c(C(=O)c3cc(OC)c(OC)c(OC)c3)c(N3CCN(C)CC3)oc2c1 [Entry 46, 2-(4-N-Methylpiperazino)-3-(3,4,5-trimethoxybenzoyl)-6-methoxy-benzo[b]furan] |  | 200 |  | 230 | 100 to 1000
13 |  | COc1ccc2c(C(=O)c3cc(OC)c(OC)c(OC)c3)c(-c3ccco3)oc2c1 [Entry 52, 2-(2-Furyl)-6-methoxy-3-(3,4,5-trimethoxybenzoyl)benzo[b]furan] |  | 6.9 |  | 7.9 | 1 to 10
14 |  | COc1cc(C(=O)c2c(-c3cnn(CC(N)=O)c3)oc3c(F)c(OC)ccc23)cc(OC)c1OC [Entry 53, 2-{4-[7-Fluoro-6-methoxy-3-(3,4,5-trimethoxybenzoyl)benzofuran-2-yl]-1H-pyrazol-1-yl}acetamide] |  | 7.8 |  | 8.1 | 0.1 to 1
15 |  | COc1cc(Sc2c(-c3cnn(C)c3)oc3c(N)c(OC)ccc23)cc(OC)c1OC [Entry 54, 7-Amino-6-methoxy-2-(1-methyl-1H-pyrazol-4-yl)-3-(3,4,5-trimethoxyphenylthio)benzo[b]furan] |  | 0.1 to 1 |  |  | 1 to 10
16 |  | COc1ccc2c(/C(=N/O)c3cc(OC)c(OC)c(OC)c3)c(-c3cnn(C)c3)oc2c1 [Entry 55, (E/Z)-6-methoxy-2-(1-methyl-1H-pyrazol-4-yl)-3-(3,4,5-trimethoxybenzoyl)benzo[b]furan oxime] |  | 100 to 1000 |  |  | 100 to 1000
17 |  | COc1ccc2c(/C(=N/Nc3ccc([N+](=O)[O-])cc3[N+](=O)[O-])c3cc(OC)c(OC)c(OC)c3)c(-c3cnn(C)c3)oc2c1 [Entry 56, (E/Z)-6-Methoxy-2-(1-methyl-1H-pyrazol-4-yl)-3-(3,4,5-trimethoxybenzoyl)benzo[b]furan 2,4-dinitrophenylhydrazone] |  | > 1000 |  |  | 100 to 1000
18 |  | COc1cc(C(=O)c2c(-c3nn[nH]n3)oc3c(O)c(OC)ccc23)cc(OC)c1OC [Entry 57, 7-Hydoxy-6-methoxy-2-(2H-tetrazol-5-yl)-3-(3,4,5-trimethoxybenzoyl)-benzo[b]furan] |  | 10 to 100 |  |  | 10 to 100
19 |  | COc1cc(C(=O)c2c(-c3c[nH]nn3)oc3c(O)c(OC)ccc23)cc(OC)c1OC [Entry 58, 17-Hydroxy-6-methoxy-2-(2H-[1,2,3]triazol-4-yl)-3-(3,4,5-trimethoxybenzoyl)benzo[b]furan] |  | 1 to 10 |  |  | 1 to 10
20 | 1 to 10 | COc1cc(C(=O)c2c(-c3cncn3C)oc3c(O)c(OC)ccc23)cc(OC)c1OC [Entry 59, 7-Hydroxy-6-methoxy-2-(3-methyl-3H-imidazol-4-yl)-3-(3,4,5-trimethoxybenzoyl)-benzo[b]furan] |  |  |  |  | 1 to 10
